Measurements reported in ChEMBL document CHEMBL3826926, “Kinetic and structural insights into the binding of histone deacetylase 1 and 2 (HDAC1, 2) inhibitors” (Bioorg Med Chem, 2016).
pIC50: −log10 of the molar value.

Legend:
[1] = molecular target: T1, Histone deacetylase 2 (Homo sapiens, UniProt Q92769); assay: biochemical; set-up: species or system Sf9
Description: Inhibition full length human recombinant HDAC2 expressed in baculovirus coexpressed in fall armyworm Sf9 cells using carboxyfluorescein (FAM)-labeled acetylated/ trifluoroacetylated peptide as substrate after 60 mins by fluorescence assay

[2] = Stability in mouse plasma assessed as compound remaining at 5 uM after 5 hrs by UPLC-MS analysis; type: ADME, cell-free; settings: read-out: Stability
[3] = molecular target: T2, Histone deacetylase 1 (Homo sapiens, UniProt Q13547); assay: biochemical
Description: Inhibition of C-terminal His-tagged and C-terminal FLAG-tagged full length human recombinant HDAC1 expressed in baculovirus coexpressed in fall armyworm Sf9 cells using carboxyfluorescein (FAM)-labeled acetylated/ trifluoroacetylated peptide as substrate after 60 mins by fluorescence assay

[4] = molecular target: T3, Histone deacetylase 3 (Homo sapiens, UniProt O15379)
Description: Inhibition full length human recombinant HDAC3 expressed in baculovirus using carboxyfluorescein (FAM)-labeled acetylated/ trifluoroacetylated peptide as substrate after 60 mins by fluorescence assay

[5] = Stability in mouse liver microsomes assessed as compound remaining at 1 uM after 60 mins by UPLC-MS analysis; type: ADME; settings: read-out: Stability
[6] = molecular target: T1, Histone deacetylase 2; settings: Sf9
Description: Inhibition of full length human recombinant HDAC2 expressed in baculovirus coexpressed in fall armyworm Sf9 cells using carboxyfluorescein (FAM)-labeled acetylated/ trifluoroacetylated peptide as substrate assessed as residence time by fluorescence assay

[7] = molecular target: T3, Histone deacetylase 3; remark: listed apart in the source
Description: Inhibition of full length human recombinant HDAC3 expressed in baculovirus using carboxyfluorescein (FAM)-labeled acetylated/ trifluoroacetylated peptide as substrate assessed as residence time by fluorescence assay

[8] = molecular target: T2, Histone deacetylase 1; settings: Sf9
Description: Inhibition of C-terminal His-tagged and C-terminal FLAG-tagged full length human recombinant HDAC1 expressed in baculovirus coexpressed in fall armyworm Sf9 cells using carboxyfluorescein (FAM)-labeled acetylated/ trifluoroacetylated peptide as substrate assessed as residence time by fluorescence assay

[9] = tested on: Mus musculus; assay: Binding affinity to mouse brain HDAC1 at 10 mg/kg, ip; type: functional
[10] = Cmax in Sprague-Dawley rat brain at 1 mg/kg, po; type: ADME, organism-based; set-up: dose 1 mg/kg, route oral
[11] = AUC in Sprague-Dawley rat plasma at 1 mg/kg, po; type: ADME, organism-based
[12] = Ratio of Cmax in brain to plasma in Sprague-Dawley rat at 1 mg/kg, po; type: ADME, organism-based
[13] = AUC in Sprague-Dawley rat brain at 1 mg/kg, po; type: ADME, organism-based
[14] = Oral bioavailability in Sprague-Dawley rat at 1 mg/kg; type: ADME, organism-based; settings: in vivo
[15] = molecular target: T4, Histone deacetylase 8 (Homo sapiens, UniProt Q9BY41); assay: Inhibition of C-terminal His-tagged full length human recombinant HDAC8 expressed in baculovirus coexpressed in fall armyworm Sf9 cells using carboxyfluorescein (FAM)-labeled acetylated/ trifluoroacetylated peptide as substrate after 60 mins by fluorescence assay
T4 sequence (Q9BY41 whole entry): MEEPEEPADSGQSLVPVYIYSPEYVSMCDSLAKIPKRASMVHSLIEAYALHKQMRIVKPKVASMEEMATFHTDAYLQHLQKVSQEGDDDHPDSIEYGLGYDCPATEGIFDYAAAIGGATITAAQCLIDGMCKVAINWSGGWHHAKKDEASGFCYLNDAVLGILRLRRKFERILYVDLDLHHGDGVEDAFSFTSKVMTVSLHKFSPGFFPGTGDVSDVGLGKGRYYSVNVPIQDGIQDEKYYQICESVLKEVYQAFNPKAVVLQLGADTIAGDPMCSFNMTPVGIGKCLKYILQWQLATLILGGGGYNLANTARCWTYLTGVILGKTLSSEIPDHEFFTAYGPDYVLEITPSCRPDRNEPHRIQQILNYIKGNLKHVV

[16] = molecular target: Histone deacetylase 5 (Homo sapiens, UniProt Q9UQL6); assay: Inhibition of N-terminal GST-tagged full length human recombinant HDAC5 expressed in baculovirus coexpressed in fall armyworm Sf9 cells using carboxyfluorescein (FAM)-labeled acetylated/ trifluoroacetylated peptide as substrate after 60 mins by fluorescence assay
[17] = Half life in Sprague-Dawley rat brain at 1 mg/kg, po; type: ADME, organism-based
[18] = Cmax in Sprague-Dawley rat plasma at 1 mg/kg, po; type: ADME, organism-based; set-up: dose 1 mg/kg, route oral
[19] = molecular target: T5, Histone deacetylase 7 (Homo sapiens, UniProt Q8WUI4); assay: (§1) Inhibition of N-terminal GST-tagged human recombinant HDAC7 (518 to end residues) expressed in baculovirus coexpressed in fall armyworm Sf9 cells using carboxyfluorescein (FAM)-labeled acetylated/ trifluoroacetylated peptide as substrate after 60 mins by fluorescence assay
T5 sequence (Q8WUI4 whole entry): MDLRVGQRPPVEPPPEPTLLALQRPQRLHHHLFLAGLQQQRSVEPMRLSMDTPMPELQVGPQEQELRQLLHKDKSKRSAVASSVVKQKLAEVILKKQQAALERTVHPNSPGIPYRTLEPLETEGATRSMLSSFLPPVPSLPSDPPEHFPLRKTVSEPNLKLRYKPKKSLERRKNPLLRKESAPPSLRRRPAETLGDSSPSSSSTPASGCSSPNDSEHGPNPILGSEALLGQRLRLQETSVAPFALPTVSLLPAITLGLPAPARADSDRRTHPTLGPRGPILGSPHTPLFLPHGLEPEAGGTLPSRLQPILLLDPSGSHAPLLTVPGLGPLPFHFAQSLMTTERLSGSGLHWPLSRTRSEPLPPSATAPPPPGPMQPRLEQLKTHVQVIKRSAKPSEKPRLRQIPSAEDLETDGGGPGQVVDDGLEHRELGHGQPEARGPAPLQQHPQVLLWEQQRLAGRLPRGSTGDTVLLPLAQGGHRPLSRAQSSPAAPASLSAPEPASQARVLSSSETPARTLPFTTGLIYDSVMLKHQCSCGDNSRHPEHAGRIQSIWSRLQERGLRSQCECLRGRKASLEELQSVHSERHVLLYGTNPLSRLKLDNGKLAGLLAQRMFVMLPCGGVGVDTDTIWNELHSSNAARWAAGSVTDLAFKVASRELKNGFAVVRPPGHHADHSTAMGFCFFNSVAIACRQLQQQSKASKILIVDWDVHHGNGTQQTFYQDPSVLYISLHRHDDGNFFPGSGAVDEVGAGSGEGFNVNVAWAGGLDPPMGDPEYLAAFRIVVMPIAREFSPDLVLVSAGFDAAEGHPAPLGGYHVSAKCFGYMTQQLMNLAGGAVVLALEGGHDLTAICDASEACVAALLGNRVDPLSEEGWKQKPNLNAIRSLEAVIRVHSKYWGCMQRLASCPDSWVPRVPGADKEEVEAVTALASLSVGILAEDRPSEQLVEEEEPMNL

[20] = molecular target: Histone deacetylase 4 (Homo sapiens, UniProt P56524); assay: as §1, with “GST-tagged and C-terminal His-tagged” for “GST-tagged”, “HDAC4 (627” for “HDAC7 (518”, “1084 residues )” for “end residues)”
[21] = Ratio of AUC in brain to plasma in Sprague-Dawley rat at 1 mg/kg, po; type: ADME, organism-based; settings: read-out: Ratio AUC
[22] = tested on: Mus musculus; assay: Binding affinity to mouse brain HDAC2 at 10 mg/kg, ip; type: functional
[23] = molecular target: Histone deacetylase 9 (Homo sapiens, UniProt Q9UKV0); assay: Inhibition of C-terminal His-tagged human recombinant HDAC9 (604 to 1066 residues) expressed in baculovirus coexpressed in fall armyworm Sf9 cells using carboxyfluorescein (FAM)-labeled acetylated/ trifluoroacetylated peptide as substrate after 60 mins by fluorescence assay
[24] = molecular target: T6, Protein deacetylase HDAC6 (Homo sapiens, UniProt Q9UBN7); assay: Inhibition of human recombinant HDAC6 expressed in baculovirus coexpressed in fall armyworm Sf9 cells using carboxyfluorescein (FAM)-labeled acetylated/ trifluoroacetylated peptide as substrate after 60 mins by fluorescence assay
T6 sequence (Q9UBN7 whole entry): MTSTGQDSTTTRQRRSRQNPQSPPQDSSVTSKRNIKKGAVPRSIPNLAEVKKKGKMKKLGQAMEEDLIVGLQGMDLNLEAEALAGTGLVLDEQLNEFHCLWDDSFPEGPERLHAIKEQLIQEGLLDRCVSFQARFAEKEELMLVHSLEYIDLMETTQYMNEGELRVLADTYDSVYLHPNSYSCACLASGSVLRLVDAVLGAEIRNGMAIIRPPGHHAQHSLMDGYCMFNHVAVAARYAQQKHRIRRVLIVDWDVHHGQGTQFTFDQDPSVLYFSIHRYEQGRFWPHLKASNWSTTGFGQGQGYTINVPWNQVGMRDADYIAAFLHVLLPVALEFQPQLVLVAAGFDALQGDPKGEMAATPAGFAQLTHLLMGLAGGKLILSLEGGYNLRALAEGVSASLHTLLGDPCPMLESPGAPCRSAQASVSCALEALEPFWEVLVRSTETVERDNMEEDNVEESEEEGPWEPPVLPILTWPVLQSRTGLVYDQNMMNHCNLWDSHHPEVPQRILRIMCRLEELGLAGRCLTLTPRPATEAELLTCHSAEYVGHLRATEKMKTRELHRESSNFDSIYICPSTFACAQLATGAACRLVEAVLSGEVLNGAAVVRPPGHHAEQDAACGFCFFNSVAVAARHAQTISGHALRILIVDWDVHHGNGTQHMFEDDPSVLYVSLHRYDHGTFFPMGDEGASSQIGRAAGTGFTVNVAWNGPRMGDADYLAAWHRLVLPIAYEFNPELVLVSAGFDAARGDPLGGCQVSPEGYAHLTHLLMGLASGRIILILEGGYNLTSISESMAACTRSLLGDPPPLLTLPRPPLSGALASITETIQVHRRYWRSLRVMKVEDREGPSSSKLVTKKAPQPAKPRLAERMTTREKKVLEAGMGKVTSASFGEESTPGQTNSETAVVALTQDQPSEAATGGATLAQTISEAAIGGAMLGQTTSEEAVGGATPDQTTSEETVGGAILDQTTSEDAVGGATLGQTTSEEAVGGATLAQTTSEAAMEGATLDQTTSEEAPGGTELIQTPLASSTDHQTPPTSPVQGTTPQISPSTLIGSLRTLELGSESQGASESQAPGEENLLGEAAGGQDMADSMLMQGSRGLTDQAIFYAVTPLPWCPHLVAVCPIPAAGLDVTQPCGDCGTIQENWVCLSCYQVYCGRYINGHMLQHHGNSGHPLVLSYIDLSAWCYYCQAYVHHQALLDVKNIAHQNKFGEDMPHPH

[25] = Half life in Sprague-Dawley rat plasma at 1 mg/kg, po; type: ADME, organism-based

T2 sequence (Q13547 whole entry): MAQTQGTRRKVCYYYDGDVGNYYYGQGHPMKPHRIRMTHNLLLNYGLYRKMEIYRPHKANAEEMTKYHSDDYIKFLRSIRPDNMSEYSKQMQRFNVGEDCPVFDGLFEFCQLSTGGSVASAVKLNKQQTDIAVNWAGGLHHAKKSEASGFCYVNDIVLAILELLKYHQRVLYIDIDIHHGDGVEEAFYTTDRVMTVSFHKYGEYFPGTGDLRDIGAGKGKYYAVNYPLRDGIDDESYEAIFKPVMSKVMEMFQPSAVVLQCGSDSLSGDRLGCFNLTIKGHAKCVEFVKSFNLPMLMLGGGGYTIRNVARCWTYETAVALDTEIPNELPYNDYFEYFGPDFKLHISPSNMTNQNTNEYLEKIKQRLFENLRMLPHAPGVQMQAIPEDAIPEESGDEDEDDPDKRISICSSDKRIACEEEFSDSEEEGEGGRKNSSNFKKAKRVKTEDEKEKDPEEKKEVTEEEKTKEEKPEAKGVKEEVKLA
T3 sequence (O15379 whole entry): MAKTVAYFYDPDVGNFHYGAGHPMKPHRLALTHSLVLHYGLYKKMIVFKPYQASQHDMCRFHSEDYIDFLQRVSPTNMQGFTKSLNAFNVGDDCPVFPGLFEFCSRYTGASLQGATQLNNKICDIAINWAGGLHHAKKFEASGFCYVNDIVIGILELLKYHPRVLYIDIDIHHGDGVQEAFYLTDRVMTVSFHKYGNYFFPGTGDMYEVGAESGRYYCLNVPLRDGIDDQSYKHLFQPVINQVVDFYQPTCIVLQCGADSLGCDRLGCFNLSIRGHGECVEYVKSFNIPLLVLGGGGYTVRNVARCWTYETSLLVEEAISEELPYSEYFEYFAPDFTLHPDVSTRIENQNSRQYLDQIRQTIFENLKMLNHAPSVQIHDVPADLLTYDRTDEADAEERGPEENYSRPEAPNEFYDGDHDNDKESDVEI
T1 sequence (Q92769 whole entry): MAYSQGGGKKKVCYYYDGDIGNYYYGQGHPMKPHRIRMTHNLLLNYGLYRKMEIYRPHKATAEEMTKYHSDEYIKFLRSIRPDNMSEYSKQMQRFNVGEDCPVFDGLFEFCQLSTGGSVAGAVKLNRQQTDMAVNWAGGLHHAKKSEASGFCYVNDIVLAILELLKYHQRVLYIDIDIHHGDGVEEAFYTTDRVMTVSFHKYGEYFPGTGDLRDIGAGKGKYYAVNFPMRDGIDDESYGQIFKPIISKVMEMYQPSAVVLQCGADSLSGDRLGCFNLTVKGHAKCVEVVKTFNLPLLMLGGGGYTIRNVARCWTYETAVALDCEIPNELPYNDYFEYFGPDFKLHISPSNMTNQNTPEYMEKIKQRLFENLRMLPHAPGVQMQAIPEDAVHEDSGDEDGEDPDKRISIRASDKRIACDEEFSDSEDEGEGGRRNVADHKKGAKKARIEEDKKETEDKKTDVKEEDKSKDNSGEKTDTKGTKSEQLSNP
Chain of Histone deacetylase 4 (P56524 whole entry): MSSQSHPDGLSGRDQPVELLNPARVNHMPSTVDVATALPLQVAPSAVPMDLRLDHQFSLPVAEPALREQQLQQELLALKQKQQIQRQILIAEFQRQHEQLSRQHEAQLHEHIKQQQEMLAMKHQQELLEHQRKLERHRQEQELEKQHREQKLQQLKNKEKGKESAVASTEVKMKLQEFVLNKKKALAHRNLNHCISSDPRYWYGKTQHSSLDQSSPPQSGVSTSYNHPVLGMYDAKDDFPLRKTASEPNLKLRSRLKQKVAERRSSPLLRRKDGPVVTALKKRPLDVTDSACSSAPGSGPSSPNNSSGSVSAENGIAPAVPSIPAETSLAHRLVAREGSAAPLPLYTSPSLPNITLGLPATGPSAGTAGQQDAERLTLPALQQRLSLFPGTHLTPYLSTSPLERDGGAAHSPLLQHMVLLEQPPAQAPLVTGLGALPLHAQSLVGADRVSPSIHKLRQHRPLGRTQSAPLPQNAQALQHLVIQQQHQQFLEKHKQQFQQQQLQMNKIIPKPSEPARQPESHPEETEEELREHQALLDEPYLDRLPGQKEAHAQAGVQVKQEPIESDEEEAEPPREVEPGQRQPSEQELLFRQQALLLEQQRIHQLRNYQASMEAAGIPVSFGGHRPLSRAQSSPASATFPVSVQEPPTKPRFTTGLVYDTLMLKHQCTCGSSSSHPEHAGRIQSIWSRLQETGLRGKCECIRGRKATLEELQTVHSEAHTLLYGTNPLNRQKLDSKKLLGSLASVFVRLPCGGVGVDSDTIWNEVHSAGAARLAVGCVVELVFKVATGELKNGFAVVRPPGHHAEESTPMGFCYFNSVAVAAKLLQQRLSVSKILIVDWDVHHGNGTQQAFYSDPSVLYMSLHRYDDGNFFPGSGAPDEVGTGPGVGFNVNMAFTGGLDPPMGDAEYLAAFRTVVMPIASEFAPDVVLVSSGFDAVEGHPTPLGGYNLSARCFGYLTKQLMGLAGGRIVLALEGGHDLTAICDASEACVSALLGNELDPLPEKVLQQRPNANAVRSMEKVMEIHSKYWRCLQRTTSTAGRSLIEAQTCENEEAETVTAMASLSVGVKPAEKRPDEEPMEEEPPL
Chain of Histone deacetylase 5 (Q9UQL6 whole entry): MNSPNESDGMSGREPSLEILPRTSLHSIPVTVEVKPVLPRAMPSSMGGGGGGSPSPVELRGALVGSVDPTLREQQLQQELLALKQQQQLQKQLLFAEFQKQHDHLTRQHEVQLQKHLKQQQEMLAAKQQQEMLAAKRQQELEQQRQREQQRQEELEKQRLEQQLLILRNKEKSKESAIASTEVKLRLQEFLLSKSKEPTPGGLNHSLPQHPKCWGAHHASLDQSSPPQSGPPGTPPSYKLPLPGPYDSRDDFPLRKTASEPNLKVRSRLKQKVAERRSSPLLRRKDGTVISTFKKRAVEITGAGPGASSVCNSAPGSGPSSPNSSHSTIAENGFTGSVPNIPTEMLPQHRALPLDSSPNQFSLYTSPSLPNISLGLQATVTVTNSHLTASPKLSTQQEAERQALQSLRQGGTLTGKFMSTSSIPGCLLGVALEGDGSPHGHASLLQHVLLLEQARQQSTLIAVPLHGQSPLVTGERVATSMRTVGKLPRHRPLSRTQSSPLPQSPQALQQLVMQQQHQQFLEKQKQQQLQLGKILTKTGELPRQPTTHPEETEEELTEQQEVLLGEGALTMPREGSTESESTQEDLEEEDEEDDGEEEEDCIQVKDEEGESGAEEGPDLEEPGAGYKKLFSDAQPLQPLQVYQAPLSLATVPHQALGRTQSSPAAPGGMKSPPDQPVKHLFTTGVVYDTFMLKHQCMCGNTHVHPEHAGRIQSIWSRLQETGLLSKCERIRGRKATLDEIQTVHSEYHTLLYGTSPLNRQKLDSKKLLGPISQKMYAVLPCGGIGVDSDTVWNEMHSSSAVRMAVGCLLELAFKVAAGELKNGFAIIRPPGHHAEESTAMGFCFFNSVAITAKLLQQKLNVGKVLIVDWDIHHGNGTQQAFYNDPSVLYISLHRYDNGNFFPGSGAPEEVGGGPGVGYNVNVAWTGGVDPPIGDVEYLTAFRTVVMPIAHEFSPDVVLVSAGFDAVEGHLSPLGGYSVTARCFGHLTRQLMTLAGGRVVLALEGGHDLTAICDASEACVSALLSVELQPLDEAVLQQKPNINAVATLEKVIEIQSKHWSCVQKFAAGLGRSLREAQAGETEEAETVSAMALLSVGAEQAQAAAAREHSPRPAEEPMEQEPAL
Chain of Histone deacetylase 9 (Q9UKV0 whole entry, the tested form may be a part): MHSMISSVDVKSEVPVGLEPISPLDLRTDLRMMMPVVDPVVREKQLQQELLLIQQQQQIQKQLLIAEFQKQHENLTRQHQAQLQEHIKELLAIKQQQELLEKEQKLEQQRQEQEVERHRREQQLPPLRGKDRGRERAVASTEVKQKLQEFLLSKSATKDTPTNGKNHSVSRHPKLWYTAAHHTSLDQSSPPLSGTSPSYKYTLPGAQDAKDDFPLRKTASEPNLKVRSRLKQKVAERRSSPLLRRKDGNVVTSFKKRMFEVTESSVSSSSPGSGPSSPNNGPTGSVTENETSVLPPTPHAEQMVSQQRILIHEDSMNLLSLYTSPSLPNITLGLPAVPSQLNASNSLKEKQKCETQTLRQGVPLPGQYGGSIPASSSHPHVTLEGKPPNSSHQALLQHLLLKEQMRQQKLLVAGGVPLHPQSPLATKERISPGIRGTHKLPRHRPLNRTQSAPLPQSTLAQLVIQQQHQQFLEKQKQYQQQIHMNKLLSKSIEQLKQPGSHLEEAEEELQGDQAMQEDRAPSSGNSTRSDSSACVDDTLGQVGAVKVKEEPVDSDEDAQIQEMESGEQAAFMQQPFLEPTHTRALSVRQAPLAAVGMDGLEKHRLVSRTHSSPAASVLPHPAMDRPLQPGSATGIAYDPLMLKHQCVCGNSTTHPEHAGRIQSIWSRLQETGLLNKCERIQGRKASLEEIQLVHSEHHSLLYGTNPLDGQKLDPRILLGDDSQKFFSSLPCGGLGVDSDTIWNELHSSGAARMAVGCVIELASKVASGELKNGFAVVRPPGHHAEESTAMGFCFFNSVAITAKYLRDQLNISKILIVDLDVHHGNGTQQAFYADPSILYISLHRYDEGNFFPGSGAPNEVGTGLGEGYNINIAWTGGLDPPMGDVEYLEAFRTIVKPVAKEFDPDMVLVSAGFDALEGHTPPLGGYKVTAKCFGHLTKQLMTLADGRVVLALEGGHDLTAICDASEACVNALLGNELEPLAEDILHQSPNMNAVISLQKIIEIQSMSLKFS

SMILES | pIC50 [1] | remaining at 5 h, 5 µM [2] [%] | pIC50 [3] | pIC50 [4] | T1/2 [7] [min] | T1/2 [8] [min] | also measured
Nc1ccc(-c2ccc(F)cc2)cc1NC(=O)C1Cc2ccccc2CO1 (centres undefined) | 6.92 | 11.1 | 7.35 | 4.59 |  |  | 
Nc1ccc(-c2ccc(F)cc2)cc1NC(=O)C1COc2ccccc2C1 (centres undefined) |  | 100 |  |  |  |  | remaining at 1 h, 1 µM [5]: 25%
Nc1ccc(-c2ccc(F)cc2)cc1NC(=O)C1CCc2ccccc2O1 (centres undefined) | 5.18 | 3.7 | 5.25 | 5.20 |  |  | 
Nc1ccc(-c2ccc(F)cc2)cc1NC(=O)[C@H]1CCCCO1 | 5.89 | 0 | 6.33 | 5.24 |  |  | 
Nc1ccc(-c2ccc(F)cc2)cc1NC(=O)C1CCCOC1 (centres undefined) | 5.33 |  | 5.91 | 4.70 |  |  | 
Nc1ccc(-c2ccc(C(F)(F)F)cc2)cc1NC(=O)C1CCOCC1 |  |  |  |  | > 33.3 | 26.7 | T1/2 [6]: > 33.3 min
Nc1ccc(-c2ccccc2)cc1NC(=O)C1CCOCC1 |  |  |  |  | 3.85 | 0.119 | 
Nc1ccc(-c2ccc(F)cc2)cc1NC(=O)[C@@H]1CCCCO1 | 5.84 | 0 | 5.84 | 5.23 |  |  | 
Nc1ccc(-c2ccc(F)cc2)cc1NC(=O)[C@@H]1C[C@H]2CC[C@@H](C1)O2 |  | 114 |  |  | 132 | 3 | remaining at 1 h, 1 µM [5]: 62%; Activity [9]: 42%; Cmax [10]: 890 nM; AUC [11]: 10.8 µM·h; Kp [12]: 0.22; AUC [13]: 1.8 µM·h; bioavailability [14]: 33.4%; pIC50 [15]: < 4.48; pIC50 [16]: < 4.48; half-life [17]: 146 min; Cmax [18]: 3970 nM; pIC50 [19]: < 4.48; T1/2 [6]: 37 min; pIC50 [20]: < 4.48; Kp [21]: 0.17; Activity [22]: 10%; pIC50 [23]: < 4.48; pIC50 [24]: < 4.48; half-life [25]: 282 min
Nc1ccc(-c2cccnc2)cc1NC(=O)C1CCOCC1 |  |  |  |  | 20.8 | 6.45 | 
Nc1ccc(-c2cccc(F)c2)cc1NC(=O)C1CCOCC1 |  |  |  |  | > 33.3 | 9.67 | T1/2 [6]: 12.3 min
Nc1ccc(-c2ccc(F)cc2)cc1NC(=O)C1C2COCC21 (centres undefined) |  | 94.1 |  |  | 217 | 13 | remaining at 1 h, 1 µM [5]: 60%; T1/2 [6]: 58 min
Nc1ccc(-c2ccncc2)cc1NC(=O)C1CCOCC1 |  |  |  |  | > 33.3 | 2.35 | 
Nc1ccc(-c2ccc(F)cc2)cc1NC(=O)C1CCOCC1 |  | 93 |  |  |  |  | remaining at 1 h, 1 µM [5]: 54%; Activity [9]: 68%; Activity [22]: 10%
